Data reported in the NIST ThermoML archive (doi:10.1021/je0502546).

Columns and labels:
[1] = refractive index (Na D-line) (dimensionless); xn = mol fraction of the nth substance listed; conditions: 101 kPa, Liquid, Standard Abbe refractometry
[2] = xn = mol fraction of the nth substance listed; conditions: 101 kPa, Liquid; for viscosity: Capillary tube (Ostwald / Ubbelohde) method
[3] = refractive index (Na D-line) (dimensionless); conditions: 101.33 kPa, Liquid, Standard Abbe refractometry
[4] = 101 kPa, Liquid; for viscosity: Capillary tube (Ostwald / Ubbelohde) method

COc1ccccc1 [anisole] + CCc1ccccc1
Conditions | mass density, [2] [kg/m3] | refractive index, [1] | viscosity, [2] [mPa·s]
293.15 K, x1 = 0.1061 | 879.21 | 1.4977 | 0.691
293.15 K, x1 = 0.2202 | 892.9 | 1.5 | 0.721
293.15 K, x1 = 0.3206 | 905.19 | 1.502 | 0.752
293.15 K, x1 = 0.4278 | 918.51 | 1.5041 | 0.789
293.15 K, x1 = 0.5402 | 932.69 | 1.5065 | 0.834
293.15 K, x1 = 0.6322 | 944.49 | 1.5086 | 0.876
293.15 K, x1 = 0.7282 | 956.99 | 1.5108 | 0.923
293.15 K, x1 = 0.8198 | 969.11 | 1.513 | 0.973
293.15 K, x1 = 0.8994 | 979.84 | 1.5153 | 1.02
293.15 K, x1 = 1 | 993.8 | 1.5177 | 1.084
303.15 K, x1 = 0.1061 | 870.49 | 1.4922 | 0.616
303.15 K, x1 = 0.2202 | 884.19 | 1.4944 | 0.639
303.15 K, x1 = 0.3206 | 896.45 | 1.4964 | 0.662
303.15 K, x1 = 0.4278 | 909.71 | 1.4986 | 0.689
303.15 K, x1 = 0.5402 | 923.84 | 1.501 | 0.725
303.15 K, x1 = 0.6322 | 935.58 | 1.5031 | 0.759
303.15 K, x1 = 0.7282 | 948.02 | 1.5053 | 0.798
303.15 K, x1 = 0.8198 | 960.07 | 1.5075 | 0.841
303.15 K, x1 = 0.8994 | 970.71 | 1.5099 | 0.878
303.15 K, x1 = 1 | 984.37 | 1.5124 | 0.931

CCCCc1ccccc1 [butylbenzene]
Conditions | mass density, [4] [kg/m3] | refractive index, [3] | viscosity, [4] [mPa·s]
293.15 K | 861.26 | 1.4895 | 1.034
303.15 K | 852.23 | 1.4845 | 0.893

CCCc1ccccc1 [propylbenzene]
Conditions | mass density, [4] [kg/m3] | refractive index, [3] | viscosity, [4] [mPa·s]
293.15 K | 863.13 | 1.4916 | 0.855
303.15 K | 854.71 | 1.4858 | 0.744

COc1ccccc1 [anisole] + c1ccccc1
Conditions | mass density, [2] [kg/m3] | refractive index, [1] | viscosity, [2] [mPa·s]
293.15 K, x1 = 0.0938 | 889.8 | 1.5032 | 0.677
293.15 K, x1 = 0.1955 | 903.56 | 1.5053 | 0.711
293.15 K, x1 = 0.3053 | 917.74 | 1.5074 | 0.751
293.15 K, x1 = 0.3994 | 929.35 | 1.5091 | 0.788
293.15 K, x1 = 0.5 | 941.27 | 1.5108 | 0.829
293.15 K, x1 = 0.6005 | 952.68 | 1.5124 | 0.874
293.15 K, x1 = 0.6996 | 963.47 | 1.5139 | 0.921
293.15 K, x1 = 0.8013 | 974.11 | 1.5153 | 0.972
293.15 K, x1 = 0.8978 | 983.8 | 1.5166 | 1.025
293.15 K, x1 = 1 | 993.8 | 1.5177 | 1.084
303.15 K, x1 = 0.0938 | 881.47 | 1.4967 | 0.587
303.15 K, x1 = 0.1955 | 895.16 | 1.4989 | 0.616
303.15 K, x1 = 0.3053 | 909.24 | 1.5011 | 0.649
303.15 K, x1 = 0.3994 | 920.76 | 1.5028 | 0.679
303.15 K, x1 = 0.5 | 932.57 | 1.5046 | 0.714
303.15 K, x1 = 0.6005 | 943.88 | 1.5064 | 0.751
303.15 K, x1 = 0.6996 | 954.56 | 1.508 | 0.791
303.15 K, x1 = 0.8013 | 965.08 | 1.5096 | 0.836
303.15 K, x1 = 0.8978 | 974.66 | 1.511 | 0.88
303.15 K, x1 = 1 | 984.37 | 1.5124 | 0.931

COc1ccccc1 [anisole]
Conditions | mass density, [4] [kg/m3] | refractive index, [3] | viscosity, [4] [mPa·s]
293.15 K | 993.8 | 1.5177 | 1.084
303.15 K | 984.37 | 1.5124 | 0.931

COc1ccccc1 [anisole] + Cc1ccccc1
Conditions | mass density, [2] [kg/m3] | refractive index, [1] | viscosity, [2] [mPa·s]
293.15 K, x1 = 0.0966 | 879.58 | 1.4993 | 0.62
293.15 K, x1 = 0.1954 | 892.47 | 1.5016 | 0.656
293.15 K, x1 = 0.2911 | 904.89 | 1.5037 | 0.693
293.15 K, x1 = 0.3936 | 918.06 | 1.506 | 0.736
293.15 K, x1 = 0.5043 | 932.17 | 1.5083 | 0.787
293.15 K, x1 = 0.5985 | 944.06 | 1.5102 | 0.834
293.15 K, x1 = 0.6995 | 956.7 | 1.5122 | 0.89
293.15 K, x1 = 0.7956 | 968.63 | 1.514 | 0.947
293.15 K, x1 = 0.8986 | 981.29 | 1.5159 | 1.013
293.15 K, x1 = 1 | 993.8 | 1.5177 | 1.084
303.15 K, x1 = 0.0966 | 870.21 | 1.4936 | 0.549
303.15 K, x1 = 0.1954 | 883.13 | 1.4959 | 0.579
303.15 K, x1 = 0.2911 | 895.55 | 1.4981 | 0.61
303.15 K, x1 = 0.3936 | 908.76 | 1.5003 | 0.645
303.15 K, x1 = 0.5043 | 922.89 | 1.5027 | 0.687
303.15 K, x1 = 0.5985 | 934.8 | 1.5046 | 0.726
303.15 K, x1 = 0.6995 | 947.44 | 1.5067 | 0.772
303.15 K, x1 = 0.7956 | 959.38 | 1.5085 | 0.818
303.15 K, x1 = 0.8986 | 972.06 | 1.5105 | 0.872
303.15 K, x1 = 1 | 984.37 | 1.5124 | 0.931

Cc1ccccc1 [toluene]
Conditions | mass density, [4] [kg/m3] | refractive index, [3] | viscosity, [4] [mPa·s]
293.15 K | 866.88 | 1.4962 | 0.588
303.15 K | 857.46 | 1.4914 | 0.523

Cc1ccccc1 [toluene] + COc1ccccc1
x2 = 0
Conditions | mass density, [2] [kg/m3] | refractive index, [1] | viscosity, [2] [mPa·s]
293.15 K | 866.88 | 1.4962 | 0.588
303.15 K | 857.46 | 1.4914 | 0.523

CCCCc1ccccc1 [butylbenzene] + COc1ccccc1
Conditions | mass density, [2] [kg/m3] | refractive index, [1] | viscosity, [2] [mPa·s]
293.15 K, x2 = 0 | 861.26 | 1.4895 | 1.034
293.15 K, x2 = 0.1238 | 873.01 | 1.4923 | 1.005
293.15 K, x2 = 0.225 | 884.01 | 1.4948 | 0.985
293.15 K, x2 = 0.3541 | 898.83 | 1.498 | 0.971
293.15 K, x2 = 0.48 | 914.4 | 1.5014 | 0.965
293.15 K, x2 = 0.581 | 927.77 | 1.5042 | 0.97
293.15 K, x2 = 0.67 | 940.23 | 1.5068 | 0.983
293.15 K, x2 = 0.7672 | 954.65 | 1.5097 | 1.002
293.15 K, x2 = 0.8483 | 967.5 | 1.5123 | 1.027
293.15 K, x2 = 0.9201 | 979.53 | 1.5148 | 1.052
303.15 K, x2 = 0 | 852.23 | 1.4845 | 0.893
303.15 K, x2 = 0.1238 | 865.04 | 1.4872 | 0.872
303.15 K, x2 = 0.225 | 875.92 | 1.4896 | 0.855
303.15 K, x2 = 0.3541 | 890.71 | 1.4927 | 0.841
303.15 K, x2 = 0.48 | 906.13 | 1.4961 | 0.837
303.15 K, x2 = 0.581 | 919.36 | 1.4989 | 0.842
303.15 K, x2 = 0.67 | 931.73 | 1.5014 | 0.851
303.15 K, x2 = 0.7672 | 946.15 | 1.5043 | 0.867
303.15 K, x2 = 0.8483 | 958.84 | 1.5068 | 0.885
303.15 K, x2 = 0.9201 | 970.6 | 1.5093 | 0.905

c1ccccc1 [benzene]
Conditions | mass density, [4] [kg/m3] | refractive index, [3] | viscosity, [4] [mPa·s]
293.15 K | 877.43 | 1.5011 | 0.647
303.15 K | 868.26 | 1.4947 | 0.563

CCCc1ccccc1 [propylbenzene] + COc1ccccc1
Conditions | mass density, [2] [kg/m3] | refractive index, [1] | viscosity, [2] [mPa·s]
293.15 K, x2 = 0 | 863.13 | 1.4916 | 0.855
293.15 K, x2 = 0.1216 | 876.73 | 1.4944 | 0.857
293.15 K, x2 = 0.2422 | 890.73 | 1.4972 | 0.862
293.15 K, x2 = 0.3455 | 903.18 | 1.4996 | 0.874
293.15 K, x2 = 0.4531 | 916.62 | 1.5023 | 0.892
293.15 K, x2 = 0.5658 | 931.23 | 1.5051 | 0.915
293.15 K, x2 = 0.6574 | 943.52 | 1.5076 | 0.94
293.15 K, x2 = 0.7486 | 956.19 | 1.5101 | 0.971
293.15 K, x2 = 0.8349 | 968.57 | 1.5126 | 1.005
293.15 K, x2 = 0.916 | 980.65 | 1.515 | 1.042
303.15 K, x2 = 0 | 854.71 | 1.4858 | 0.744
303.15 K, x2 = 0.1216 | 868.36 | 1.4886 | 0.748
303.15 K, x2 = 0.2422 | 882.36 | 1.4914 | 0.752
303.15 K, x2 = 0.3455 | 894.78 | 1.4939 | 0.758
303.15 K, x2 = 0.4531 | 908.15 | 1.4966 | 0.77
303.15 K, x2 = 0.5658 | 922.67 | 1.4995 | 0.79
303.15 K, x2 = 0.6574 | 934.9 | 1.5019 | 0.812
303.15 K, x2 = 0.7486 | 947.46 | 1.5045 | 0.84
303.15 K, x2 = 0.8349 | 959.71 | 1.507 | 0.87
303.15 K, x2 = 0.916 | 971.62 | 1.5095 | 0.899

c1ccccc1 [benzene] + COc1ccccc1
x2 = 0
Conditions | mass density, [2] [kg/m3] | refractive index, [1] | viscosity, [2] [mPa·s]
293.15 K | 877.43 | 1.5011 | 0.647
303.15 K | 868.26 | 1.4947 | 0.563

CCc1ccccc1 [ethylbenzene] + COc1ccccc1
x2 = 0
Conditions | mass density, [2] [kg/m3] | refractive index, [1] | viscosity, [2] [mPa·s]
293.15 K | 866.95 | 1.4957 | 0.669
303.15 K | 858.01 | 1.4902 | 0.596

CCc1ccccc1 [ethylbenzene]
Conditions | mass density, [4] [kg/m3] | refractive index, [3] | viscosity, [4] [mPa·s]
293.15 K | 866.95 | 1.4957 | 0.669
303.15 K | 858.01 | 1.4902 | 0.596

COc1ccccc1 [anisole] + CCCCc1ccccc1
x1 = 1
Conditions | mass density, [2] [kg/m3] | refractive index, [1] | viscosity, [2] [mPa·s]
293.15 K | 993.8 | 1.5177 | 1.084
303.15 K | 984.37 | 1.5124 | 0.931

COc1ccccc1 [anisole] + CCCc1ccccc1
x1 = 1
Conditions | mass density, [2] [kg/m3] | refractive index, [1] | viscosity, [2] [mPa·s]
293.15 K | 993.8 | 1.5177 | 1.084
303.15 K | 984.37 | 1.5124 | 0.931
